Experimental data as given in patent publication US8449898B2 (priority 2007, dated 2013).
Where two headings read alike, the source gives them in different places.

Tests used:
[1] = system: Phytophthora infestans (the causal agent of tomato late blight); assay: whole plant or invertebrate; format: in vivo; conditions: Phytophthora infestans
[2] = system: Pseudoperonospora cubensis (the causal agent of cucumber downy mildew); assay: Test B: cucumber downy mildew, preventive spray on cucumber seedlings; format: in vivo; conditions: Pseudoperonospora cubensis

## Cc1cc(C(F)(F)F)nn1CC(=O)N1CCC(c2nc(C3=NOC(c4ccccc4)C3)cs2)CC1 (centres unmarked) [Compound 1, 4-[4-[4,5-dihydro-5-phenyl-3-isoxazolyl]-2-thiazolyl]-1-[[5-methyl-3-(trifluoromethyl)-1H-pyrazol-1-yl]acetyl]piperidine]
[1]; read-out: TLB Obsd (disease control rating), Table A, Compound 1 alone 0.05 ppm
  pest or weed control at 0.05 ppm: 34%
[1]; read-out: TLB Obsd (disease control rating), Table A, Compound 1 alone 0.1 ppm
  pest or weed control at 0.1 ppm: 78%
[1]; read-out: TLB Obsd (disease control rating), Table A, Compound 1 alone 0.15 ppm
  pest or weed control at 0.15 ppm: 97%
[1]; read-out: TLB Obsd (disease control rating), Table A, Compound 1 alone 0.2 ppm
  pest or weed control at 0.2 ppm: 94%
[1]; read-out: TLB Obsd (disease control rating), Table A, Compound 1 alone 1 ppm
  pest or weed control at 1 ppm: 100%
[1]; read-out: TLB Obsd (disease control rating), Table B, Compound 1 alone 0.05 ppm
  pest or weed control at 0.05 ppm: 26%
[1]; read-out: TLB Obsd (disease control rating), Table B, Compound 1 alone 0.1 ppm
  pest or weed control at 0.1 ppm: 53%
[1]; read-out: TLB Obsd (disease control rating), Table B, Compound 1 alone 0.15 ppm
  pest or weed control at 0.15 ppm: 59%
[1]; read-out: TLB Obsd (disease control rating), Table B, Compound 1 alone 0.2 ppm
  pest or weed control at 0.2 ppm: 56%
[1]; read-out: TLB Obsd (disease control rating), Table B, Compound 1 alone 1 ppm
  pest or weed control at 1 ppm: 100%
[1]; read-out: TLB Obsd (disease control rating), Table C, Compound 1 alone 0.05 ppm
  pest or weed control at 0.05 ppm: 17%
[1]; read-out: TLB Obsd (disease control rating), Table C, Compound 1 alone 0.1 ppm
  pest or weed control at 0.1 ppm: 17%
[1]; read-out: TLB Obsd (disease control rating), Table C, Compound 1 alone 0.15 ppm
  pest or weed control at 0.15 ppm: 57%
[1]; read-out: TLB Obsd (disease control rating), Table C, Compound 1 alone 0.2 ppm
  pest or weed control at 0.2 ppm: 51%
[1]; read-out: TLB Obsd (disease control rating), Table C, Compound 1 alone 1 ppm
  pest or weed control at 1 ppm: 99%
[1]; read-out: TLB Obsd, Table D, Compound 1 alone at 0.05 ppm
  pest or weed control at 0.05 ppm: 32%
[1]; read-out: TLB Obsd, Table D, Compound 1 alone at 0.1 ppm
  pest or weed control at 0.1 ppm: 52%
[1]; read-out: TLB Obsd, Table D, Compound 1 alone at 0.15 ppm
  pest or weed control at 0.15 ppm: 90%
[1]; read-out: TLB Obsd, Table D, Compound 1 alone at 0.2 ppm
  pest or weed control at 0.2 ppm: 67%
[1]; read-out: TLB Obsd, Table D, Compound 1 alone at 1 ppm
  pest or weed control at 1 ppm: 100%
[1]; read-out: TLB Obsd, Table E, Compound 1 alone at 0.05 ppm
  pest or weed control at 0.05 ppm: 33%
[1]; read-out: TLB Obsd, Table E, Compound 1 alone at 0.1 ppm
  pest or weed control at 0.1 ppm: 75%
[1]; read-out: TLB Obsd, Table E, Compound 1 alone at 0.15 ppm
  pest or weed control at 0.15 ppm: 92%
[1]; read-out: TLB Obsd, Table E, Compound 1 alone at 0.2 ppm
  pest or weed control at 0.2 ppm: 90%
[1]; read-out: TLB Obsd, Table E, Compound 1 alone at 1 ppm
  pest or weed control at 1 ppm: 100%
[2]; Compound 1 alone 0.025 ppm, Table H evaluation set, rating 100 = 100% disease control, read-out: CDM Obsd
  pest or weed control at 0.025 ppm: 33%
[2]; Compound 1 alone 0.025 ppm, Table I evaluation set, read-out: CDM Obsd
  pest or weed control at 0.025 ppm: 47%
[2]; Compound 1 alone 0.025 ppm, Table J evaluation set, read-out: CDM Obsd
  pest or weed control at 0.025 ppm: 47%
[2]; Compound 1 alone 0.025 ppm, Table K evaluation set, read-out: CDM Obsd
  pest or weed control at 0.025 ppm: 76%
[2]; Compound 1 alone 0.025 ppm, Table L evaluation set, read-out: CDM Obsd
  pest or weed control at 0.025 ppm: 51%
[2]; Compound 1 alone 0.05 ppm, Table H evaluation set, read-out: CDM Obsd
  pest or weed control at 0.05 ppm: 40%
[2]; Compound 1 alone 0.05 ppm, Table I evaluation set, read-out: CDM Obsd
  pest or weed control at 0.05 ppm: 47%
[2]; Compound 1 alone 0.05 ppm, Table J evaluation set, read-out: CDM Obsd
  pest or weed control at 0.05 ppm: 47%
[2]; Compound 1 alone 0.05 ppm, Table K evaluation set, read-out: CDM Obsd
  pest or weed control at 0.05 ppm: 92%
[2]; Compound 1 alone 0.05 ppm, Table L evaluation set, read-out: CDM Obsd
  pest or weed control at 0.05 ppm: 51%
[2]; Compound 1 alone 0.075 ppm, Table H evaluation set, read-out: CDM Obsd
  pest or weed control at 0.075 ppm: 40%
[2]; Compound 1 alone 0.075 ppm, Table I evaluation set, read-out: CDM Obsd
  pest or weed control at 0.075 ppm: 47%
[2]; Compound 1 alone 0.075 ppm, Table J evaluation set, read-out: CDM Obsd
  pest or weed control at 0.075 ppm: 47%
[2]; Compound 1 alone 0.075 ppm, Table K evaluation set, read-out: CDM Obsd
  pest or weed control at 0.075 ppm: 89%
[2]; Compound 1 alone 0.075 ppm, Table L evaluation set, read-out: CDM Obsd
  pest or weed control at 0.075 ppm: 51%
[2]; Compound 1 alone 0.1 ppm, Table H evaluation set, read-out: CDM Obsd
  pest or weed control at 0.1 ppm: 76%
[2]; Compound 1 alone 0.1 ppm, Table I evaluation set, read-out: CDM Obsd
  pest or weed control at 0.1 ppm: 57%
[2]; Compound 1 alone 0.1 ppm, Table J evaluation set, read-out: CDM Obsd
  pest or weed control at 0.1 ppm: 47%
[2]; Compound 1 alone 0.1 ppm, Table K evaluation set, read-out: CDM Obsd
  pest or weed control at 0.1 ppm: 98%
[2]; Compound 1 alone 0.1 ppm, Table L evaluation set, read-out: CDM Obsd
  pest or weed control at 0.1 ppm: 98%
[2]; Compound 1 alone 0.125 ppm, Table H evaluation set, read-out: CDM Obsd
  pest or weed control at 0.125 ppm: 81%
[2]; Compound 1 alone 0.125 ppm, Table I evaluation set, read-out: CDM Obsd
  pest or weed control at 0.125 ppm: 57%
[2]; Compound 1 alone 0.125 ppm, Table J evaluation set, read-out: CDM Obsd
  pest or weed control at 0.125 ppm: 47%
[2]; Compound 1 alone 0.125 ppm, Table K evaluation set, read-out: CDM Obsd
  pest or weed control at 0.125 ppm: 99%
[2]; Compound 1 alone 0.125 ppm, Table L evaluation set, read-out: CDM Obsd
  pest or weed control at 0.125 ppm: 81%
[2]; Table A, Compound 1 alone 0.05 ppm, read-out: CDM Obsd (disease control rating)
  pest or weed control at 0.05 ppm: 88%
[2]; Table A, Compound 1 alone 0.1 ppm, read-out: CDM Obsd (disease control rating)
  pest or weed control at 0.1 ppm: 95%
[2]; Table A, Compound 1 alone 0.15 ppm, read-out: CDM Obsd (disease control rating)
  pest or weed control at 0.15 ppm: 100%
[2]; Table A, Compound 1 alone 0.2 ppm, read-out: CDM Obsd (disease control rating)
  pest or weed control at 0.2 ppm: 100%
[2]; Table A, Compound 1 alone 1 ppm, read-out: CDM Obsd (disease control rating)
  pest or weed control at 1 ppm: 100%
[2]; Table B, Compound 1 alone 0.05 ppm, read-out: CDM Obsd (disease control rating)
  pest or weed control at 0.05 ppm: 64%
[2]; Table B, Compound 1 alone 0.1 ppm, read-out: CDM Obsd (disease control rating)
  pest or weed control at 0.1 ppm: 86%
[2]; Table B, Compound 1 alone 0.15 ppm, read-out: CDM Obsd (disease control rating)
  pest or weed control at 0.15 ppm: 85%
[2]; Table B, Compound 1 alone 0.2 ppm, read-out: CDM Obsd (disease control rating)
  pest or weed control at 0.2 ppm: 92%
[2]; Table B, Compound 1 alone 1 ppm, read-out: CDM Obsd (disease control rating)
  pest or weed control at 1 ppm: 100%
[2]; Table C, Compound 1 alone 0.05 ppm, read-out: CDM Obsd (disease control rating)
  pest or weed control at 0.05 ppm: 77%
[2]; Table C, Compound 1 alone 0.1 ppm, read-out: CDM Obsd (disease control rating)
  pest or weed control at 0.1 ppm: 86%
[2]; Table C, Compound 1 alone 0.15 ppm, read-out: CDM Obsd (disease control rating)
  pest or weed control at 0.15 ppm: 95%
[2]; Table C, Compound 1 alone 0.2 ppm, read-out: CDM Obsd (disease control rating)
  pest or weed control at 0.2 ppm: 100%
[2]; Table C, Compound 1 alone 1 ppm, read-out: CDM Obsd (disease control rating)
  pest or weed control at 1 ppm: 100%
[2]; Table D, Compound 1 alone at 0.05 ppm, read-out: CDM Obsd
  pest or weed control at 0.05 ppm: 64%
[2]; Table D, Compound 1 alone at 0.1 ppm, read-out: CDM Obsd
  pest or weed control at 0.1 ppm: 77%
[2]; Table D, Compound 1 alone at 0.15 ppm, read-out: CDM Obsd
  pest or weed control at 0.15 ppm: 86%
[2]; Table D, Compound 1 alone at 0.2 ppm, read-out: CDM Obsd
  pest or weed control at 0.2 ppm: 93%
[2]; Table D, Compound 1 alone at 1 ppm, read-out: CDM Obsd
  pest or weed control at 1 ppm: 100%
[2]; Table F, Compound 1 alone at 0.025 ppm, read-out: CDM Obsd
  pest or weed control at 0.025 ppm: 40%
[2]; Table F, Compound 1 alone at 0.05 ppm, read-out: CDM Obsd
  pest or weed control at 0.05 ppm: 68%
[2]; Table F, Compound 1 alone at 0.075 ppm, read-out: CDM Obsd
  pest or weed control at 0.075 ppm: 39%
[2]; Table F, Compound 1 alone at 0.1 ppm, read-out: CDM Obsd
  pest or weed control at 0.1 ppm: 47%
[2]; Table F, Compound 1 alone at 0.125 ppm, read-out: CDM Obsd
  pest or weed control at 0.125 ppm: 58%
[2]; Table G, Compound 1 alone at 0.025 ppm, read-out: CDM Obsd
  pest or weed control at 0.025 ppm: 26%
[2]; Table G, Compound 1 alone at 0.05 ppm, read-out: CDM Obsd
  pest or weed control at 0.05 ppm: 26%
[2]; Table G, Compound 1 alone at 0.075 ppm, read-out: CDM Obsd
  pest or weed control at 0.075 ppm: 47%
[2]; Table G, Compound 1 alone at 0.1 ppm, read-out: CDM Obsd
  pest or weed control at 0.1 ppm: 47%
[2]; Table G, Compound 1 alone at 0.125 ppm, read-out: CDM Obsd
  pest or weed control at 0.125 ppm: 68%
